Molecular target: T1, IRAK4 (Homo sapiens, UniProt Q9NWZ3)
T1 sequence (Q9NWZ3 1-460): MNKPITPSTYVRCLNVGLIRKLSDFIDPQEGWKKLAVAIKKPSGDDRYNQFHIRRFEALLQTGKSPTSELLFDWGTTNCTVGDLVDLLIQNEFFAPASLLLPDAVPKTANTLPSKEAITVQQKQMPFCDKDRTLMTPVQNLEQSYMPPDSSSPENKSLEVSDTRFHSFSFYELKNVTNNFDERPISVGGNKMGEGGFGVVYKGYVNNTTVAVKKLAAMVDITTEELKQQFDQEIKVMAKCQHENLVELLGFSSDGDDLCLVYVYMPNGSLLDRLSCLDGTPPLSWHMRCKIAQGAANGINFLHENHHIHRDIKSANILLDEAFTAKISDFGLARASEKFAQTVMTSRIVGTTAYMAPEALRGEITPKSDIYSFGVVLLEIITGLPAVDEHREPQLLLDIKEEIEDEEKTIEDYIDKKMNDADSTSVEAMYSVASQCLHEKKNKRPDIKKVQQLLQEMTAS
Assay: IRAK-4 activity inhibition assay (Caliper)
Format: biochemical
Details: 37 μM ATP, 3.5 nM IRAK4

| SMILES | IC50 [µM] |
| --- | --- |
| CN(C)[C@H]1CC[C@H](Nc2ncnc3sc4c(c23)C(CC(N)=O)CC4)CC1 (stereo partly shown) [Compound I-13, 2-(4-(((1r,4r)-4-(dimethylamino)cyclohexyl)amino)-6,7-dihydro-5H-cyclopenta[4,5]thieno[2,3-d]pyrimidin-5-yl)acetamide] | < 5 |
| OCC[C@@H]1CCc2sc3ncnc(O[C@H]4CC[C@H](N5CCOCC5)CC4)c3c2C1 [Compound I-145, 2-((R)-4-(((1r,4R)-4-morpholinocyclohexyl)oxy)-5,6,7,8-tetrahydrobenzo[4,5]thieno[2,3-d]pyrimidin-6-yl)ethanol] | < 5 |
| CN[C@H]1CC[C@H](Oc2ncnc3sc4c(c23)[C@@H](C[C@@H](C#N)OC)CC4)CC1 [Compound I-80, (2S)-2-methoxy-3-[(3R)-12-[[4-(methylamino)cyclohexyl]oxy]-7-thia-9,11-diazatricyclo[6.4.0.0[2,6]]dodeca-1(8),2(6),9,11-tetraen-3-yl]propanenitrile] | < 5 |
| CC[C@H](O)C[C@H]1CCc2sc3ncnc(N[C@H]4CC[C@H](N(C)C)CC4)c3c21 [Compound I-54] | < 5 |
| COCCN(CCOC)[C@H]1CC[C@H](Oc2ncnc3sc4c(c23)[C@@H](CC(N)=O)CC4)CC1 [Compound I-134, 2-[(3R)-12-([4-[bis(2-methoxyethyl)amino]cyclohexyl]oxy)-7-thia-9,11-diazatricyclo[6.4.0.0[2,6]]dodeca-1(12),2(6),8,10-tetraen-3-yl]acetamide] | < 5 |
| C#CCOC[C@@H]1CCc2sc3ncnc(O[C@H]4CC[C@H](N(C)C)CC4)c3c21 [Compound I-48, N,N-dimethyl-4-[[(3R)-3-[(prop-2-yn-1-yloxy)methyl]-7-thia-9,11-diazatricyclo[6.4.0.0[2,6]]dodeca-1(8),2(6),9,11-tetraen-12-yl]oxy]cyclohexan-1-amine] | < 5 |
| CN(C)[C@H]1CC[C@H](Oc2ncnc3sc4c(c23)[C@@H](CCC(N)=O)CCC4)CC1 [Compound I-163, 3-((R)-4-(((1r,4R)-4-(dimethylamino)cyclohexyl)oxy)-5,6,7,8-tetrahydrobenzo[4,5]thieno[2,3-d]pyrimidin-5-yl)propanamide] | < 5 |
| CN1Cc2sc3ncnc(O[C@H]4CC[C@H](N5CCOCC5)CC4)c3c2C1 [Compound I-196, 4-methyl-12-[[4-(morpholin-4-yl)cyclohexyl]oxy]-7-thia-4,9,11-triazatricyclo[6.4.0.0[2,6]]dodeca-1(12),2(6),8, 10-tetraene] | 5 to 20 |
| C/C=C/COC[C@H]1CCc2sc3ncnc(O[C@H]4CC[C@H](N(C)C)CC4)c3c21 [Compound I-59, 4-[[(3S)-3-[[(2E)-but-2-en-1-yloxy]methyl]-7-thia-9,11-diazatricyclo[6.4.0.0[2,6]]dodeca-1(8),2(6),9,11-tetraen-12-yl]oxy]-N,N-dimethylcyclohexan-1-amine] | < 5 |
| CC(=O)N1CCc2sc3ncnc(N[C@H]4CC[C@H](N5CCOCC5)CC4)c3c2C1 [Compound I-172, 1-(3-[[4-(morpholin-4-yl)cyclohexyl]amino]-8-thia-4,6,12-triazatricyclo[7.4.0.0-[2,7]]trideca-1(9),2(7),3,5-tetraen-12-yl)ethan-1-one] | 5 to 20 |
| NC(=O)C(=O)C[C@H]1CCc2sc3ncnc(OC4CCC(N5CCOCC5)CC4)c3c21 (stereo partly drawn) [Compound I-213, 3-[(3R)-12-[[4-(morpholin-4-yl)cyclohexyl]oxy]-7-thia-9, 11-diazatricyclo[6.4.0.0[2,6]]dodeca-1(8),2(6),9, 11-tetraen-3-yl]-2-oxopropanamide] | < 5 |
| CN(C)[C@H]1CC[C@H](Oc2ncnc3sc4c(c23)[C@@H](C[C@@H](O)C(N)=O)CC4)CC1 [Compound I-75, (2R)-3-[(3R)-12-[[4-(dimethylamino)cyclohexyl]oxy]-7-thia-9,11-diazatricyclo[6.4.0.0̂[2,6]]dodeca-1(8),2(6),9,11-tetraen-3-yl]-2-hydroxypropanamide] | < 5 |
| CN(C)[C@H]1CC[C@H](Nc2ncnc3sc4c(c23)C(CC(=O)N2CCCC2)CC4)CC1 (stereo partly shown) [Compound I-14, 2-(4-(((1r,4r)-4-(dimethylamino)cyclohexyl)amino)-6,7-dihydro-5H-cyclopenta[4,5]thieno[2,3-d]pyrimidin-5-yl)-1-(pyrrolidin-1-yl)ethanone] | > 50 |
| CN(CC(=O)N1CCCC1)[C@H]1CC[C@H](Nc2ncnc3sc4c(c23)[C@@H](CCC(N)=O)CC4)CC1 [Compound I-127, 3-((S)-4-(((1r,4S)-4-(methyl(2-oxo-2-(pyrrolidin-1-yl)ethyl)amino)cyclohexyl)amino)-6,7-dihydro-5H-cyclopenta[4,5]thieno[2,3-d]pyrimidin-5-yl)propanamide] | 5 to 20 |
| COCCN(C)[C@H]1CC[C@H](Oc2ncnc3sc4c(c23)[C@@H](CC(N)=O)CC4)CC1 [Compound I-130, 2-((R)-4-(((1r,4R)-4-((2-methoxyethyl)(methyl)amino)cyclohexyl)oxy)-6,7-dihydro-5H-cyclopenta[4,5]thieno[2,3-d]pyrimidin-5-yl)acetamide] | < 5 |
| NC(=O)C[C@H]1CCc2sc3ncnc(O[C@H]4CC[C@H](N5CCNC(=O)C5)CC4)c3c21 [Compound I-158, 2-((R)-4-(((1r,4R)-4-(3-oxopiperazin-1-yl)cyclohexyl)oxy)-6,7-dihydro-5H-cyclopenta[4,5]thieno[2,3-d]pyrimidin-5-yl)acetamide] | 20 to 50 |
| CN(C)[C@H]1CC[C@H](Oc2ncnc3sc4c(c23)[C@@H](C[C@@H](O)c2cc[nH]n2)CC4)CC1 [Compound I-98, (R)-2-((R)-4-(((1r,4R)-4-(dimethylamino)cyclohexyl)oxy)-6,7-dihydro-5H-cyclopenta[4,5]thieno[2,3-d]pyrimidin-5-yl)-1-(1H-pyrazol-3-yl)ethanol] | < 5 |
| C#CCOC[C@H]1CCc2sc3ncnc(O[C@H]4CC[C@H](N(C)C)CC4)c3c21 [Compound I-49, N,N-dimethyl-4-[[(3S)-3-[(prop-2-yn-1-yloxy)methyl]-7-thia-9,11-diazatricyclo[6.4.0.0[2,6]]dodeca-1(8),2(6),9,11-tetraen-12-yl]oxy]cyclohexan-1-amine] | < 5 |
| CN(CCO)C(=O)C1CCc2sc3ncnc(N[C@H]4CC[C@H](N(C)C)CC4)c3c21 (stereo partly shown) [Compound I-29, 12-[[4-(dimethylamino)cyclohexyl]amino]-N-(2-hydroxyethyl)-N-methyl-7-thia-9,11-diazatricyclo[6.4.0.0̂[2,6]]dodeca-1(12),2(6),8,10-tetraene-3-carboxamide] | > 50 |
| NC(=O)C[C@H]1CCc2sc3ncnc(OC4CCC(NC5COC5)CC4)c3c21 (stereo partly drawn) [Compound I-132, 2-[(3R)-12-([4-[(oxetan-3-yl)amino]cyclohexyl]oxy)-7-thia-9,11-diazatricyclo[6.4.0.0[2,6]]dodeca-1(8),2(6),9,11-tetraen-3-yl]acetamide] | < 5 |
| NC(=O)C[C@H]1CCc2sc3ncnc(O[C@H]4CC[C@@H](N5CCNC(=O)C5)CC4)c3c21 [Compound I-157, 2-((R)-4-(((1s,4S)-4-(3-oxopiperazin-1-yl)cyclohexyl)oxy)-6,7-dihydro-5H-cyclopenta[4,5]thieno[2,3-d]pyrimidin-5-yl)acetamide] | < 5 |
| CC(=O)N1CCc2sc3ncnc(N[C@H]4CC[C@H](N(C)C)CC4)c3c2C1 [Compound I-173, 1-(3-[[4-(dimethylamino)cyclohexyl]amino]-8-thia-4,6,12-triazatricyclo[7.4.0.0-[2,7]]trideca-1(9),2(7),5-trien-12-yl)ethan-1-one] | 5 to 20 |
| CN(C)[C@H]1CC[C@H](Nc2ncnc3sc4c(c23)C(CCO)CC4)CC1 (stereo partly shown) [Compound I-12, 2-(4-(((1r,4r)-4-(dimethylamino)cyclohexyl)amino)-6,7-dihydro-5H-cyclopenta[4,5]thieno[2,3-d]pyrimidin-5-yl)ethanol] | < 5 |
| CN(C)[C@H]1CC[C@H](Nc2ncnc3sc4c(c23)C(CC(=O)NCCO)CC4)CC1 (stereo partly shown) [Compound I-26, 2-(12-[[4-(dimethylamino)cyclohexyl]amino]-7-thia-9,11-diazatricyclo[6.4.0.0̂[2,6]]dodeca-1(8),2(6),9,11-tetraen-3-yl)-N-(2-hydroxyethyl)acetamide] | 5 to 20 |
| C[C@@H](O)C[C@H]1CCc2sc3ncnc(O[C@H]4CC[C@H](N5CCOCC5)CC4)c3c21 [Compound I-82, (R)-1-((R)-4-(((1r,4R)-4-morpholinocyclohexyl)oxy)-6,7-dihydro-5H-cyclopenta[4,5]thieno[2,3-d]pyrimidin-5-yl)propan-2-ol] | < 5 |
| CN(C)[C@H]1CC[C@H](Oc2ncnc3sc4c(c23)[C@@H](C[C@H](O)C(N)=O)CC4)CC1 [Compound I-74, (2S)-3-[(3R)-12-[[4-(dimethylamino)cyclohexyl]oxy]-7-thia-9,11-diazatricyclo[6.4.0.0̂[2,6]]dodeca-1(8),2(6),9,11-tetraen-3-yl]-2-hydroxypropanamide] | < 5 |
| CN(C)[C@H]1CC[C@H](Oc2ncnc3sc4c(c23)[C@H](CO)CC4)CC1 [Compound I-20, ((S)-4-(((1r,4S)-4-(dimethylamino)cyclohexyl)oxy)-6,7-dihydro-5H-cyclopenta[4,5]thieno[2,3-d]pyrimidin-5-yl)methanol] | < 5 |
| CN(C)[C@H]1CC[C@H](Nc2ncnc3sc4c(c23)[C@@H](CC(N)=O)CC4)CC1 [Compound I-99, 2-[(3R)-12-[[4-(dimethylamino)cyclohexyl]amino]-7-thia-9,11-diazatricyclo[6.4.0.0[2,6]]dodeca-1(12),2(6),8,10-tetraen-3-yl]acetamide] | < 5 |

Reference: patent US20160193216A1 (Nimbus Iris, Inc., priority 2012, published 2016)
